Results on 33 compounds are retold here after patent US11065253B2, “Arylquinazolines” (Merck Patent GmbH, priority 2013, dated 2021).

One assay deals with phospho-serine 2056 DNA-PK in HCT116 cells. The assay is described as follows: DNA-PK phosphorylation at serine 2056 (cellular), ELISA in bleomycin-treated HCT116 cells. In kind it is cell-based. To be noted: Homo sapiens, HCT-116, 6 h, cellular; HCT116 cells, 10 μM bleomycin, six hours; read-out: IC50 pDNA-PK. The gist of the method:
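Chemiluminescent ELISA read-out; phospho-specific signal normalised to total DNA-PKcs. Cells (HCT116) exposed 6 h to test compound plus 10 μM bleomycin to induce double-strand breaks; DMSO control served as blank.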
Background: In an ELISA, binding on a coated surface is turned into a signal by an enzyme label.
By IC50 is commonly meant the concentration that gives 50% inhibition. Turning to `COc1cnc(C(O)c2ccc(F)c(-c3ncnc4cc(N5CCOCC5)ccc34)c2)nc1` (stereo not drawn) [Example 66, [4-Fluoro-3-(7-morpholin-4-yl-quinazolin-4-yl)phenyl]-(5-methoxypyrimidin-2-yl)methanol], the IC50 fell in the range of 10 to 30 µM.
Consider `OC(c1ccc(F)c(-c2ncnc3cc(N4CCOCC4)ccc23)c1)c1c(F)cncc1Cl` (stereo not drawn) [Example 77, (3-Chloro-5-fluoro-pyridin-4-yl)-[4-fluoro-3-(7-morpholin-4-yl-quinazolin-4-yl)phenyl]-methanol], for which the IC50 is under 0.5 µM.
In the case of `COc1nnc(C(O)c2cc(-c3ncnc4cc(N5CCOCC5)ccc34)c(F)cc2Cl)c2ccncc12` (stereo not drawn) [Example 40, [2-Chloro-4-fluoro-5-(7-morpholin-4-yl-quinazolin-4-yl)phenyl]-(4-methoxypyrido-[3,4-d}pyridazin-1-yl)-methanol], the IC50 is 0.5 to 5 µM.
On the same count and under the same terms, the same measure for `COc1cnc(Cl)c(C(O)c2ccc(F)c(-c3ncnc4cc(N5CCOCC5)ccc34)c2)c1` (stereo not drawn) [Example 22, (2-Chloro-5-methoxy-pyridin-3-yl)-[4-fluoro-3-(7-morpholin-4-yl-quinazolin-4-yl)phenyl]-methanol]: under 0.5 µM; for `CCOc1cnnc(C(O)c2ccc(F)c(-c3ncnc4cc(N5CCOCC5)ccc34)c2)c1` (stereo not drawn) [Example 79, (5-Ethoxypyridazin-3-yl)-[4-fluoro-3-(7-morpholin-4-yl-quinazolin-4-yl)phenyl]-methanol]: 5 to 10 µM.
As to `O=c1[nH]ccnc1C(O)c1ccc(F)c(-c2ncnc3cc(N4CCOCC4)ccc23)c1` (stereo not drawn) [Example 5, 3-{[4-Fluoro-3-(7-morpholin-4-yl-quinazolin-4-yl)phenyl]-hydroxymethyl}-1H-pyrazin-2-one], the IC50 was in the range of 10 to 30 µM.
The same measure, in the same setting: the same measure for `NC(=O)Cn1nc(C(O)c2cc(-c3ncnc4cc(N5CCOCC5)ccc34)c(F)cc2Cl)ccc1=O` (stereo not drawn) [Example 98, 2-(3-{[2-Chloro-4-fluoro-5-(7-morpholin-4-ylquinazolin-4-yl)-phenyl]hydroxymethyl}-6-oxo-6H-pyridazin-1-yl)acetamide]: 10 to 30 µM.

The same assay, now with this note: Homo sapiens, HCT-116, cellular DNA-PK phosphorylation at serine 2056, HCT116 cells; read-out: IC50 pDNA-PK.
Consider `OC(c1cc(-c2ncnc3cc(N4CCOCC4)ccc23)ccc1F)c1cccc2nncn12` (stereo not drawn) [Example 373, [2-Fluoro-5-(7-morpholin-4-yl-quinazolin-4-yl)-phenyl]-[1,2,4]-triazolo[4,3-a]pyridin-5-ylmethanol], for which the IC50 lay within 0.5 to 5 µM.
For the compound `OC(c1cc(-c2ncnc3cc(N4CCOCC4)ccc23)c(F)cc1F)c1ncnc2ccoc12` (stereo not drawn) [Example 444, [2,4-Difluoro-5-(7-morpholin-4-yl-quinazolin-4-yl)-phenyl]furo[3,2-d}-pyrimidin-4-yl-methanol], the IC50 was in the range of 0.5 to 5 µM.
Same read-out and setting: the result for `OC(c1cc(-c2ncnc3cc(N4CCOCC4)ccc23)ccc1Cl)c1nccn2ccnc12` (stereo not drawn) [Example 369, [2-Chloro-5-(7-morpholin-4-yl-quinazolin-4-yl)-phenyl]imidazo-[1,2-a]pyrazin-8-yl-methanol] reads 5 to 10 µM; that for `Cc1nccnc1C(O)c1cc(-c2ncnc3cc(N4CCOCC4)ccc23)ccc1Cl` (stereo not drawn) [Example 426, [2-Chloro-5-(7-morpholin-4-yl-quinazolin-4-yl)-phenyl]-(3-methyl-pyrazin-2-yl)-methanol (Ena 2)], 0.5 to 5 µM.
Consider `Cc1cncnc1C(C(N)=O)c1cc(-c2ncnc3cc(N4CCOCC4)ccc23)ccc1Cl` (stereo not drawn) [Example 377, 2-[2-Chloro-5-(7-morpholin-4-yl-quinazolin-4-yl)-phenyl]-2-(5-methyl-pyrimidin-4-yl)-acetamide (Ena 2)], for which the IC50 was 0.5 to 5 µM.
As to `OC(c1ccc(F)c(-c2ncnc3cc(N4CCOCC4)ccc23)c1)c1nccnc1C(F)(F)F` (stereo not drawn) [Example 476, [4-Fluoro-3-(7-morpholin-4-yl-quinazolin-4-yl)-phenyl]-(3-trifluoro-methylpyrazin-2-yl)-methanol], the IC50 is under 0.5 µM.
The same measure, in the same setting: the result for `OC(c1cc(-c2ncnc3cc(N4CCOCC4)ccc23)ccc1F)c1ncnc2sccc12` (stereo not drawn) [Example 406, [2-Fluoro-5-(7-morpholin-4-yl-quinazolin-4-yl)-phenyl]thieno[2,3-d}-pyrimidin-4-yl-methanol] reads under 0.5 µM.

The same assay, now with this note: Homo sapiens, HCT-116, phospho-serine 2056 DNA-PK, bleomycin-treated HCT116 cells; class symbols A-D; read-out: IC50 pDNA-PK.
Turning to `Cc1nc(C(O)c2ccc(F)c(-c3ncnc4cc(N5CCOCC5)ccc34)c2)sc1CO` (stereo not drawn) [Example 200, [4-Fluoro-3-(7-morpholin-4-yl-quinazolin-4-yl)-phenyl]-(5-hydroxy-methyl-4-methyl-thiazol-2-yl)-methanol], the IC50 fell in the range of 5 to 10 µM.
Same read-out and setting: the result for `OCCOc1ccc(C(O)c2cc(-c3ncnc4cc(N5CCOCC5)ccc34)c(F)cc2Cl)nn1` (stereo not drawn) [Example 116, 2-(6-{[2-Chloro-4-fluoro-5-(7-morpholin-4-yl-quinazolin-4-yl)-phenyl]hydroxy-methyl}pyridazin-3-yl-oxy)ethanol] reads 0.5 to 5 µM; that for `OC(c1cc(F)c(F)c(-c2ncnc3cc(N4CCOCC4)ccc23)c1)c1nccs1` (stereo not drawn) [Example 171, [3,4-Difluoro-5-(7-morpholin-4-yl-quinazolin-4-yl)-phenyl]thiazol-2-yl-methanol], 0.5 to 5 µM.
On the same count and under the same terms, the same measure for `CSc1ccc(C(O)c2cc(-c3ncnc4cc(N5CCOCC5)ccc34)c(F)cc2Cl)nn1` (stereo not drawn) [Example 108, [2-Chloro-4-fluoro-5-(7-morpholin-4-yl-quinazolin-4-yl)-phenyl]-(6-methyl-sulfanylpyridazin-3-yl)methanol]: under 0.5 µM.
In the case of `COc1ccc(C(O)c2cc(-c3ncnc4cc(N5CCOCC5)ccc34)c(F)cc2F)c(F)c1` (stereo not drawn) [Example 124, [2,4-Difluoro-5-(7-morpholin-4-yl-quinazolin-4-yl)-phenyl]-(2-fluoro-4-methoxy-phenyl)methanol], the IC50 lay in the range of 0.5 to 5 µM.
On the same count and under the same terms, the same measure for `OC(c1cccc(-c2ncnc3cc(N4CCOCC4)sc23)c1)c1nccs1` (stereo not drawn) [Example 182, [3-(6-Morpholin-4-ylthieno[3,2-d}-pyrimidin-4-yl)-phenyl]thiazol-2-yl-methanol]: 5 to 10 µM; for `N#CCOc1ccc(C(O)c2cc(-c3ncnc4cc(N5CCOCC5)ccc34)c(F)cc2Cl)nn1` (stereo not drawn) [Example 119, (6-{[2-Chloro-4-fluoro-5-(7-morpholin-4-yl-quinazolin-4-yl)-phenyl]hydroxy-methyl}pyridazin-3-yl-oxy)acetonitrile]: under 0.5 µM; for `COc1ccc(C(O)c2cc(-c3ncnc4cc(N5CCOCC5)ccc34)c(F)cc2F)nc1` (stereo not drawn) [Example 224, [2,4-Difluoro-5-(7-morpholin-4-yl-quinazolin-4-yl)-phenyl]-(5-methoxy-pyridin-2-yl)methanol]: 0.5 to 5 µM.
For the compound `OC(c1cc(F)cc(-c2ncnc3cc(N4CCOCC4)ccc23)c1)c1nccs1` (stereo not drawn) [Example 169, [3-Fluoro-5-(7-morpholin-4-yl-quinazolin-4-yl)-phenyl]thiazol-2-yl-methanol], the IC50 fell in the range of 10 to 30 µM.

Staying with this assay, now noted: Homo sapiens, HCT-116, phospho-serine 2056 DNA-PK, bleomycin-treated HCT116 cells; read-out: IC50 pDNA-PK.
For `O=c1[nH]nc(C(O)c2ccc(F)c(-c3ncnc4cc(N5CCOCC5)ccc34)c2)c2ccsc12` (stereo not drawn) [Example 338, 4-[[4-Fluoro-3-(7-morpholino-quinazolin-4-yl)-phenyl]hydroxy-methyl]-6H-thieno[2,3-d}-pyridazin-7-one], the IC50 lay in the range of 0.5 to 5 µM.
Same read-out and setting: the result for `NC(=O)C(c1ccc(F)c(-c2ncnc3cc(N4CCOCC4)ccc23)c1)c1nnc(Cl)c2ccsc12` (stereo not drawn) [Example 290, 2-(4-Chlorothieno-[2,3-d}pyridazin-7-yl)-2-[4-fluoro-3-(7-morpholin-4-yl-quinazolin-4-yl)-phenyl]acetamide] reads 5 to 10 µM; that for `NC(=O)C(c1cc(-c2ncnc3cc(N4CCOCC4)ccc23)ccc1Cl)c1nccnc1Cl` (stereo not drawn) [Example 315, 2-[2-Chloro-5-(7-morpholin-4-yl-quinazolin-4-yl)-phenyl]-2-(3-chloro-pyrazin-2-yl)-acetamide], 10 to 30 µM.
Regarding `Cn1nc(C(O)c2ccc(F)c(-c3ncnc4cc(N5CCOCC5)ccc34)c2)ccc1=O` (stereo not drawn) [Example 326, 6-{[4-Fluoro-3-(7-morpholin-4-yl-quinazolin-4-yl)-phenyl]hydroxy-methyl}-2-methyl-2H-pyridazin-3-one], the IC50 is 0.5 to 5 µM.
Still for that read-out and setting: the same measure for `Cn1nc(C(C(N)=O)c2ccc(F)c(-c3ncnc4cc(N5CCOCC5)ccc34)c2)ccc1=O` (stereo not drawn) [Example 317, 2-[4-Fluoro-3-(7-morpholin-4-yl-quinazolin-4-yl)-phenyl]-2-(1-methyl-6-oxo-1,6-dihydro-pyridazin-3-yl)-acetamide]: 10 to 30 µM.
`Nc1cncc(C(O)c2ccc(F)c(-c3ncnc4cc(N5CCOCC5)ccc34)c2)n1` (stereo not drawn) [Example 302, (6-Amino-pyrazin-2-yl)-[4-fluoro-3-(7-morpholin-4-yl-quinazolin-4-yl)-phenyl]methanol]: the half-inhibitory concentration (IC50) lay within 5 to 10 µM.

Staying with this assay, now noted: cellular DNA-PK phosphorylation at serine 2056, HCT116 cells; read-out: IC50 pDNA-PK.
Consider `OC(c1cccnn1)c1cc(-c2ncnc3cc(N4CCOCC4)ccc23)ccc1Cl` (stereo not drawn) [Example 470, [2-Chloro-5-(7-morpholin-4-yl-quinazolin-4-yl)-phenyl]pyridazin-3-yl-methanol], for which the IC50 is under 0.5 µM.
As to `COc1cncnc1C(O)c1cc(-c2ncnc3cc(N4CCOCC4)ccc23)ccc1Cl` (stereo not drawn) [Example 409, [2-Chloro-5-(7-morpholin-4-yl-quinazolin-4-yl)-phenyl]-(5-methoxy-pyrimidin-4-yl)-methanol (Ena 1)], the IC50 was 0.5 to 5 µM.
On to `OC(c1cc(-c2ncnc3cc(N4CCOCC4)ccc23)c(F)cc1F)c1nccnc1OC(F)F` (stereo not drawn) [Example 449, (3-Difluoromethoxy-pyrazin-2-yl)-[2,4-difluoro-5-(7-morpholin-4-yl-quinazolin-4-yl)-phenyl]methanol], for which the IC50 was in the range of 0.5 to 5 µM.

The same assay, now with this note: cellular; HCT116 cells, 10 μM bleomycin, six hours; read-out: IC50 pDNA-PK.
On to `OC(c1ccc2nccn2n1)c1cc(-c2ncnc3cc(N4CCOCC4)ccc23)c(F)cc1Cl` (stereo not drawn) [Example 63, [2-Chloro-4-fluoro-5-(7-morpholin-4-yl-quinazolin-4-yl)phenyl]-imidazo[1,2-b]pyridazin-6-ylmethanol], for which the IC50 was in the range of 0.5 to 5 µM.
